What all share (assay): NCI-60 cell line screen, 48 h
The subject of assay [1] is OVCAR-4 ovarian.
Assay [2] relates to SF-268 CNS.
Assay [3] deals with SNB-75 CNS.
For assay [4], the system named is M14 melanoma.
Assay [5] deals with MOLT-4 leukemia.
Assay [6] concerns SN12C renal.
For assay [7], the system named is HT29 colon.
The subject of assay [8] is SK-MEL-5 melanoma.
In assay [9] the test system is HCT-15 colon.
Assay [10] concerns UACC-257 melanoma.

Where “and” joins values, the source holds several entries; their conditions need not be identical. Identical values can stand only once.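 Step 1: Grow cells in 96-well plates. Step 2: Expose to compound for 48 hours at 5 concentrations. Step 3: Interpolate endpoints linearly; if unreached, use highest concentration. Here, GI50 denotes the concentration required for 50% inhibition of growth. TGI: concentration producing complete growth inhibition.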 Where only a bound is given, the exact number is not on record here.

On to `COC(=O)c1ccc(-c2c(C#N)[n+](=O)c3cc(Cl)c(Cl)cc3n2[O-])cc1`, for which the GI50 in assay [1] is 19.7 µM; in [2], 16.4 µM; in assay [3], 20.2 µM; in [4] it was 16.2 µM; in assay [5], 1.18 µM; in assay [6] it was 14.7 µM. The GI50 in assay [7] is 19.9 µM; in [8], 22 µM; in [9], 11.1 µM; in assay [10] it was 21.5 µM. Besides, the TGI in [1] is 38 µM; in [2], 32.1 µM; in [3], 39.8 µM; in [4], 34.1 µM; in assay [5], 2.96 µM; in assay [6] it was 29.3 µM. The TGI in [7] is 58 µM; in [8] it was 47.7 µM; in assay [9] it was 91.2 µM; in assay [10] it was 50.1 µM.
Consider `O=C1CCC(=O)c2c1c(O)c1ccncc1c2O`, for which the TGI in [1] turned out to be 25.6 µM; in [3], 34.7 µM; in assay [4], 28.9 µM; in assay [5], 43.1 µM; in [6], 31.6 µM; in assay [7], 21.3 µM. The TGI was determined as 23.5 µM in [8], 26.3 µM in assay [9] and 20.2 µM in assay [10].
Consider `COc1ccc(-c2nsc3c2NC(=O)CC3c2cccc(OC)c2)cc1` (centres undefined), for which the GI50 in assay [1] is 7.4 µM; in assay [2] it was 4.53 µM; in [3], 1.3 µM; in assay [4], 0.613 µM; in assay [5], 2.18 µM; in assay [6] it was 3.81 µM. Moreover, the GI50 was 0.427 µM in assay [7], 0.445 µM in [8], 0.527 µM in [9] and 12.9 µM in assay [10]. Moreover, the TGI in assay [1], in assay [2], in assay [4], in [5], in [6] and in [7] was > 100 µM throughout. Besides, the TGI is 17.5 µM in assay [8], > 100 µM in assay [9] and > 100 µM in assay [10].
`O=C1CCC/C=C\C[C@H]2C=CC(=O)/C2=C/C[C@H](C/C=C\CC(F)(F)F)O1`: the GI50 in [1] was 0.571 µM; in assay [2], 0.522 µM; in assay [3], 0.806 µM; in assay [4], 0.493 µM; in assay [5], 0.984 µM; in assay [6], 0.492 µM. Further, the GI50 in assay [7] is 0.352 µM; in assay [8], 0.342 µM; in [9], 0.316 µM. Also, the TGI amounted to 2.5 µM in [1]; 2.12 µM in [2]; 3.22 µM in assay [3]; 1.7 µM in [4]; 7.51 µM in [5]; 2.04 µM in [6]. Also, the TGI in assay [7] was 0.696 µM; in [8] it was 0.78 µM; in [9] it was 0.867 µM.
As for `O=[P@@]1(c2ccccc2)O[C@H](COCc2ccccc2)[C@@H](OCc2ccccc2)[C@H](OCc2ccccc2)[C@H]1NCc1ccccc1`, the GI50 is 3.47 µM in assay [1]; 3.47 µM in assay [2]; 2.08 µM in [3]; 3.21 µM in assay [4]; 2.38 µM in [5]; 1.83 µM in assay [6]. Also, the GI50 in [7] is 3.21 µM; in assay [8] it was 2.59 µM; in [9], 3.54 µM; in assay [10], 2.22 µM. The TGI in [1] is 48.9 µM; in assay [2], > 100 µM; in [3] it was 47.5 µM; in [4], > 100 µM; in [5] it was 7.8 µM; in assay [6], 3.6 µM. Besides, the TGI in assay [7] is > 100 µM; in assay [8] it was 6.79 µM; in [9] it was > 100 µM; in assay [10] it was 6.76 µM.
On to `O=[N+]([O-])c1ccc(CI)cc1`, for which the GI50 in assay [1] was 3.6 µM; in assay [2], 4.02 µM; in assay [3] it was 3.27 µM; in [4], 3.38 µM; in assay [5] it was 1.32 µM; in assay [6], 2 µM. Also, the results for the GI50 in assay [8], in [9] and in [10] were 1.99 µM, 1.17 µM and 3.47 µM, respectively. In addition, the TGI in assay [1] came to 18.6 µM; in assay [2] it was 15.2 µM; in assay [3] it was 15.5 µM; in [4] it was 13.5 µM; in assay [5], 7.21 µM; in assay [6], 5.39 µM. For the same compound, the TGI in assay [8] turned out to be 4.41 µM; in [9] it was 3.76 µM; in assay [10] it was 15.5 µM.
In the case of `CC1(Br)Cc2ccccc2C1=O` (centres undefined), the GI50 is 2.14 µM in assay [1]; 1.08 µM in [4]; 0.423 µM in assay [5]; 4.55 µM in assay [6]; 2.75 µM in assay [8]; 13.3 µM in [10]. For the same compound, the TGI in assay [1] is 8.43 µM; in [2] it was 20.2 µM; in assay [3], 27 µM; in assay [4], 4.4 µM; in [5], 9.91 µM and 3.4 µM; in [6] it was 14.8 µM. In addition, the values for the TGI in [7], in assay [8] and in assay [10] were 15.4 µM, 12.5 µM and 29.2 µM, respectively.
In the case of `O=C(Nc1ccc(Cl)c(C(F)(F)F)c1)c1ccc(NC2=C(Cl)C(=O)N(Cc3ccccc3)C2=O)cc1`, the GI50 is 11.4 µM in [1]; 2.76 µM in assay [2]; 13.8 µM in assay [3]; 19.6 µM in assay [4]; 2.89 µM in assay [5]; 17.9 µM in [6]. Besides, the GI50 in assay [7] is 7.47 µM; in assay [10], 16.3 µM. In addition, the TGI was 69.9 µM in assay [1]; 9.02 µM in [2]; 33.9 µM in assay [3]; 41.6 µM in assay [4]; > 100 µM in assay [5]; 31.8 µM in [6]. Moreover, the TGI was > 100 µM in assay [7] and 42.7 µM in assay [10].
Turning to `CC(C)=CCc1cc2c(cc1O)OC[C@H]1c3cc4c(cc3O[C@@H]21)OCO4`, the TGI was > 100 µM in assay [1]; > 100 µM in assay [2]; > 100 µM in assay [3]; > 100 µM in assay [4]; 57.4 µM in assay [5]; > 100 µM in [7]. For the same compound, the TGI in assay [8] is 39.3 µM; in [9] it was > 100 µM; in assay [10], > 100 µM.
